The subject of experiment [1] is cytokinin-dependent tobacco callus. The experiment can be described thus: Tobacco callus bioassay. The format is cell-based. The note with it: for EC50: Nicotiana tabacum. How it is done: (§1) Tobacco callus, Amaranthus and Wheat leaf senescence assay (WLSA) were performed as described by Holub et al. ([1998]) including the number of repetitions in each assay. An exception to the published protocols was that the tobacco callus assay was performed in 6-well microtiter plates (with each well containing 3 ml of Murashige Skoog medium into which 0.1 g of callus was added). Each compound was tested at least twice in each assay and in a wider concentration range to obtain concentration-dependent activity curves. IC50 means compound concentration at which chlorophyll degradation is inhibited by 50% and EC50 means half the maximal effective concentration.

For experiment [2], the system named is Amaranthus caudatus cotyledon-hypocotyl explants. Kind of experiment: Amaranthus bioassay (betacyanin synthesis). The note with it: for EC50: Amaranthus caudatus. Format: cell-based, Amaranthus caudatus var. atropurpurea. As for the experimental part:
as §1
(§2) Amaranthus assay evaluates the induction of betacyanin synthesis in Amaranthus (Amaranthus caudatus var. atropurpurea) cotyledons, which is induced by cytokinins (Bamberger and Mayer, [1960]). The WLSA evaluates the ability of compounds to retard chlorophyll degradation in excised wheat leaves that are kept in the dark. The wheat leaf segments (Triticum aestivum cv. Hereward) were used in all other experiments requiring wheat. Arabidopsis (Arabidopsis thaliana) leaf senescence assay was performed with detached leaves from 30-day-old plants, which were grown in soil in phytotron under standard conditions (Rivero et al., [2014]). Four leaves of a combined weight of 60 mg were placed in a six-well plate and stored in the dark for 12 days at 22°C. The leaves (except the fresh control leaves) floated on water solutions of tested compounds. Fresh control leaves were leaves detached from a plant and immediately used for chlorophyll determination. The duration of the senescence assay of Arabidopsis leaves was prolonged to highlight the difference in chlorophyll content between a negative control and treatments. Arabidopsis leaves were losing chlorophyll more slowly than wheat leaves. Chlorophyll extraction and spectrophotometric determination of its content was done according to Holub et al. ([1998]).

In experiment [3] the test system is detached Arabidopsis leaves (chlorophyll loss in the dark). The experiment can be described thus: Arabidopsis leaf senescence assay. The settings on record: for % of the chlorophyll retained: 0.01 μM; for % of the chlorophyll retained / % more of chlorophyll retained than DMSO (negative control): 12 days in the dark; for % more of chlorophyll retained than DMSO (negative control): 1 μM; for times more effective than BA in Arabidopsis leaf senescence assay: compared to the activity of BA in 1 μM. Format: cell-based, Arabidopsis thaliana.
Excerpt: as §2

The test system of experiment [4] is Arabidopsis thaliana roots. The experiment can be described thus: Arabidopsis root elongation assay. Format: in vivo, Arabidopsis thaliana (wild-type Col-0). The settings on record: 0.1 μM, 14 days; for Arabidopsis root growth (length): control 3.5 cm. As for the experimental part: (§3) Seeds of Triticum aestivum were surface sterilized by washing with 96% ethanol (10 min) and sown in a hydroponic growing system (Araponics, Liege, Belgium) using Hoagland's solution supplemented with either 0.1 μM TDZ, 0.1 μM ASES or 0.01% DMSO (solvent control). The plants were grown in a growth chamber at 25°C with a 16/8 h light period at 130 μM m^−2s^−1. The root lengths of at least 50 plants were measured 2 weeks after the plants had been sown. Seeds of Arabidopsis thaliana (wild-type Col-0) were surface sterilized by the same procedure as seeds of wheat and sown on vertical plates using half-strength Murashige-Skoog medium (supplemented with 0.1% sucrose and 6 g/L phytagel) containing either 0.1 μM TDZ, 0.1 μM ASES or 0.01% DMSO (solvent control). After vernalization (4 days in the dark, 4°C), the plates were transferred into a growth chamber (22°C, 16/8 light/dark, 130 μM m^−2s^−1). Root elongation was scored 2 weeks after the transfer, with measurements from at least 40 plants for each treatment. The whole experiment was repeated twice.

For another experiment, the system named is Triticum aestivum roots. The experiment can be described thus: Wheat root elongation assay. Format: in vivo. The settings on record: 0.1 μM, 14-day-old plants; control 10.4 cm. As for the experimental part: as §3
In experiment [5] the test system is detached wheat leaves (ethylene production). Kind of experiment: Ethylene accumulation assay. The settings on record: 10 μM, sealed vials; for ethylene production, fold of the control: days 3–6, dark; for ethylene production, fold of untreated leaves: first 3 days, dark. The format is cell-based, Triticum aestivum. How it is done: Two detached leaf tips (final weight 50 mg) from 7-day-old wheat plants were incubated in 10 mL gas chromatography vials with either 1 mL of 0.1% DMSO (control), 10 μM ASES or 10 μM TDZ, and kept in the dark for 6 days at 25°C (1 day longer than the classical WLSA). On the third day, 1 mL of air from each vial was collected and the vials were then left open for 1 h and aerated with fresh air. Another 1 mL of air was collected from each vial on the sixth day. The amount of ethylene in each sample was determined using gas chromatography and the flame ionization detector method described by Fišerová et al. ([2001]).

Experiment [6] has as its system photosystem II complexes in wheat leaves from WLSA. The experiment can be described thus: Two-dimensional clear-native/SDS electrophoresis of membrane complexes. Set-up: species or system Triticum aestivum. The settings on record: 10 μM, 5 days in the dark. As for the experimental part:
Leaves from WLSA were frozen at −80°C and then dried overnight by lyophilization at 5°C. Dried material was homogenized by bead-beating (2 × 10 s) with 2.5 mm metal beads (Mini-Beadbeater-16, BioSpec, USA). The resulting powder was mixed with a thylakoid buffer, pH 6.5, containing 25 mM MES, 10 mM MgCl2, 10 mM CaCl2, and 25% glycerol and bead-beaten (4 × 10 s). The obtained cell extract was centrifuged, after which the insoluble fraction was transferred into a new tube and solubilized with 2% dodecyl-β-maltoside for 15 min on ice. The solution was centrifuged at 30,000 × g for 10 min to remove any non-solubilized cell debris and the obtained solubilized membrane proteins were separated by electrophoresis using a 4 to 12% polyacrylamide clear native gel (Wittig et al., [2007]). Individual components of protein complexes were resolved by incubating the gel strip from the first electrophoresis in 2% SDS and 1% dithiothreitol for 30 min at room temperature, after which the proteins were separated in a second dimension by SDS-electrophoresis using a denaturing 12 to 20% polyacrylamide gel containing 7 M urea (Dobáková et al., [2009]). Proteins were stained with Coomassie Brilliant Blue, and individual protein components were identified by comparing the protein pattern with previously published results (Pagliano et al., [2012]).

Experiment [7] concerns young wheat plants under salt stress. Kind of experiment: Salt stress experiment. The format is in vivo, Triticum a. cv. Hereward. The note with it: 100 nM, 75 mM NaCl. How it is done:
A plastic container was filled with 45 g of perlite and 200 mL of Hoagland's solution (control) or with the addition of ASES to a final concentration of 100 nM. Sterilized seeds of Triticum a. cv. Hereward (6 g) were sown on the surface. Both treatments were done in two repetitions. The plants were left to grow in optimal conditions (22°C, 16/8, light/dark, 130 μM m^−2 s^−1, humidity 60%) for 7 days. During this period, most of the water evaporated and the containers were adjusted to the same weight by the addition of fresh distilled water. After this, all the containers contained 50 g (mL) of water. Then 100 mM NaCl solution was added in the final volume of 150 mL. Final concentration of the salt was 75 mM. The plants were then left to grow, analyzed visually and photographed at certain time-points.

Like-named read-outs stand apart in the source and are kept apart here.

In the case of `O=C(Nc1ccccc1)Nc1cnns1` [TDZ, 1-phenyl-3-(1,2,3-thiadiazol-5-yl)urea, reference compound], the concentration for a half-maximal effect (EC50) in experiment [1] (read-out: Tobacco callus bioassay (EC50, μM)) worked out at 0.001 µM. In addition, in experiment [2], the “activity in Amaranthus assay, fold exceeding all other cytokinins” value was “at least 100 fold”. The concentration for a half-maximal effect (EC50) in experiment [2] (read-out: Amaranthus bioassay (EC50, μM)) is 0.004 µM. For the same compound, in experiment [3], the “% of the chlorophyll retained” value is on record as “more than 55%”, the “% more of chlorophyll retained than DMSO (negative control)” value is given as 85% and the “times more effective than BA in Arabidopsis leaf senescence assay” value was “approximately 100 times”. Besides, in experiment [4], the “reduction of Arabidopsis root growth compared to the control” value turned out to be 50% and the “Arabidopsis root growth (length)” value is listed as 1.7 cm. Also, the wheat root length in the experiment on Triticum aestivum roots is 3.2 cm. Besides, in experiment [5], the “ethylene production, fold of the control” value came out at 2.18 fold and the “ethylene production, fold of untreated leaves” value was 2.02 fold. Further, in experiment [6], the “level of PSII-LHCII supercomplexes” value is reported as “completely lost”.

For `COCCNC(=O)Nc1cnns1` [ASES, 1-(2-methoxy-ethyl)-3-1,2,3-thiadiazol-5-yl-urea], the “cell division stimulatory effect, times lower than that of TDZ” value in experiment [1] is on record as “more than 700 times”. Moreover, the concentration for a half-maximal effect (EC50) in experiment [1] (half the maximal effective concentration, N.A. = not active, read-out: Tobacco callus bioassay (EC50)) worked out at 0.68 µM. Further, the “Tobacco callus bioassay (EC50, μM)” value in experiment [1] (half the maximal effective concentration, N.A. = not active) is given as “sub-micromolar range”. Besides, in experiment [2], the “fold lower potency than BA in inducing betacyanin” value was approximately 5 fold and the “fold lower potency than TDZ in inducing betacyanin” value is given as “approximately 1,000 fold”. For the same compound, the EC50 in experiment [2] (betacyanin synthesis, N.A. = not active, read-out: Amaranthus bioassay (EC50)) stood at 4 µM. In addition, in experiment [3], the “% of the chlorophyll retained” value was “more than 55%”, the “% more of chlorophyll retained than DMSO (negative control)” value is recorded as 96% and the “times more effective than BA in Arabidopsis leaf senescence assay” value is recorded as “approximately 100 times”. In addition, the “Arabidopsis root growth (length)” value in experiment [4] was 4.2 cm. Further, the wheat root length with Triticum aestivum roots is given as 11.0 cm. Further, in experiment [5], the “ethylene production, fold of the control” value turned out to be 1.22 fold and the “ethylene production, fold of untreated leaves” value came to 1.36 fold. Further, the “delay of senescence of the individual leaves compared to the untreated control” value in experiment [7] lay within 5 to 6 days. Moreover, in experiment [7] (twenty days after planting, control 81%), the “% of plants with dry and/or completely yellow at least one quarter of the first leaf” value is 8%. Further, in experiment [6], the “level of PSII-LHCII supercomplexes” value was “even higher level of PSII-LHCII supercomplexes than we observed for fresh control” and the “membrane complexes / level of dimeric PSII in senescent leaves” value is recorded as “very similar to those of the fresh control, including high levels of dimeric PSII”.

Broadly, the EC50 is the concentration giving half of the maximal effect.

The values are drawn from publication PMC6142817, “New Urea Derivatives Are Effective Anti-senescence Compounds Acting Most Likely via a Cytokinin-Independent Mechanism” (Frontiers in Plant Science, 2018).
